We go through one compound from patent publication US7517907B2, “Pharmaceutical/cosmetic compositions comprising a novel RARbeta receptor-activating ligand” (Galderma Research & Development, priority 2003, dated 2009).

The term AC50 denotes the concentration at which the activity in the assay is half-maximal. A high value points to weaker potency.

In one assay the target is T1, RARgamma (Homo sapiens, UniProt P13631).
T1 sequence (P13631 185-419 limits assumed): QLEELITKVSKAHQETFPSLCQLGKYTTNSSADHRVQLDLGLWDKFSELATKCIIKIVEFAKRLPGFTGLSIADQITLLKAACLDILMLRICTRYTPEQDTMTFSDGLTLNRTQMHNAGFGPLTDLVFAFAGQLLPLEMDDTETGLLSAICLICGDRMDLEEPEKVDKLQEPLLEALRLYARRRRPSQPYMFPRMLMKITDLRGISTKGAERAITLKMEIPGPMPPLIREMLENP
Kind of assay: Transactivation assay (luciferase reporter, HeLa stable transfectants), RARgamma. The assay is classed as cell-based. From the text:
[The procedure below names another target; the source lists this target under the same test.] (§1) The compounds according to the invention have activating properties on RARbeta-type receptors. This RARbeta receptor-activating activity can in particular be measured in a transactivation assay by means of the dissocation constant Kdapp (apparent), the AC50 (concentration giving 50% of the activity of the reference molecule) and also by means of the % activation.
(§2) The activation of receptors with an agonist (activator) in HeLa cells leads to the expression of a reporter gene, luciferase, which, in the presence of a substrate, generates light. The activation of the receptors can thus be measured by quantifying the luminescence produced after incubating the cells in the presence of a reference antagonist. Activating products will displace the antagonist from its site, thus allowing activation of the receptor. The activity is measured by quantifying the increase in light produced. This measurement makes it possible to determine the activating activity of the compound according to the invention.
(§3) In this study, a constant is determined which represents the affinity of the molecule for the receptor. […]
(§4) These crossed curves make it possible to determine the AC50 values (concentration at which 50% activation is observed) for the reference ligand at various concentrations of test product. These AC50 values are used to calculate the Schild regression by plotting a straight line corresponding to the Schild equation (“quantitation in receptor pharmacology” Terry P. Kenakin, Receptors and Channels, 2001, 7, 371-385).
(§5) In the case of an agonist, an AC50 value (concentration giving 50% activity) is calculated by plotting the curve of the product at the concentration of the reference ligand that gives 80% activation. The % activation which corresponds to the maximum level of activity obtained is also measured. […]
(§6) The culture medium is removed by turning the plates over, and 100 μl of a 1:1 PBS/luciferin mixture are added to each well. After 5 minutes, the plates are read using a luminescence reader.
(In general: Reporter assays use an easily measured gene product as a stand-in for the process of interest.)

Assay [1] deals with T2, RARbeta (Homo sapiens, UniProt P10826).
T2 construct: RARbeta Kdapp; RARbeta AC50; other: maximum level of activity obtained, relative to 100% control total agonist
T2 sequence (P10826 183-417 limits assumed): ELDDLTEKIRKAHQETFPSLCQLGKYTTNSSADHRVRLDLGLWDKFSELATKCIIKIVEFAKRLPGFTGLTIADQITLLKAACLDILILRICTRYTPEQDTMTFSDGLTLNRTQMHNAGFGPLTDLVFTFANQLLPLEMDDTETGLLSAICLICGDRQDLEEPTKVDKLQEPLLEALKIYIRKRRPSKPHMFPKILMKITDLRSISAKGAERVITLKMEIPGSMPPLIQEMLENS
Kind of assay: Transactivation assay (luciferase reporter, HeLa stable transfectants), RARbeta. It counts as cell-based.
Description: as §1, §2
(§7) In this study, a constant is determined which represents the affinity of the molecule for the receptor. Since this value can fluctuate depending on the basal activity and the expression of the receptor, it is referred to as the Kd apparent (Kdapp).
(§8) To determine this constant, “crossed curves” of the test product against a reference antagonist, otherwise referred to as reference ligand, 4-(5,5-dimethyl-8-p-tolyl-5,6-dihydronaphthalen-2-ylethynyl)benzoic acid, are realized in 96-well plates. The test product is used at 10 concentrations and the reference antagonist at 7 concentrations. In each, the cells are in contact with a concentration of the test product and with a concentration of the reference antagonist, 4-(5,5-dimethyl-8-p-tolyl-5,6-dihydronaphthalen-2-ylethynyl)benzoic acid. […]
as §4, §5, §6

The subject of assay [2] is RARbeta. Described as above. It counts as cell-based, human. The conditions noted are these: RARbeta Kdapp to RARalpha or RARgamma Kdapp.
Description: as §1, §2, §7, §8, §4, §5, §6

In another assay the target is T3, RARalpha (Homo sapiens, UniProt P10276).
T3 sequence (P10276 183-417 limits assumed): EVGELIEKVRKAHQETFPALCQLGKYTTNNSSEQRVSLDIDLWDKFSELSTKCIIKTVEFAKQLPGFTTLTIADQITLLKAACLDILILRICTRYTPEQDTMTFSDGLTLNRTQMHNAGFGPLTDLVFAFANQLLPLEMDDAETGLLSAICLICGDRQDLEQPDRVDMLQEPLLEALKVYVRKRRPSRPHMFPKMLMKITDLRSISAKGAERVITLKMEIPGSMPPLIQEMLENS
Kind of assay: Transactivation assay (luciferase reporter, HeLa stable transfectants), RARalpha. The assay is classed as cell-based.
Description: [The procedure below names another target; the source lists this target under the same test.] as §1, §2, §3, §4, §5, §6

Where [3] appears, read: concentration giving 50% activity, at the reference ligand concentration giving 80% activation, HeLa cells.
Setting [4] is: maximum level of activity obtained, relative to 100% control total agonist.

As to `CC1(C)OCC(COc2ccc(-c3ccc4cc(C(=O)O)ccc4c3)cc2C23CC4CC(CC(C4)C2)C3)O1` (stereo not shown) [Ex. 1, 6-[3-adamantan-1-yl-4-(2,2-dimethyl[1,3]dioxolan-4-ylmethoxy)phenyl]naphthalene-2-carboxylic acid], the Kd came out at 4 µM at RARgamma (apparent Kd from Schild regression, crossed curves against reference antagonist, HeLa cells, read-out: RARgamma Kdapp); 60 nM at RARbeta [1] (apparent Kd from Schild regression, crossed curves against reference antagonist, HeLa cells, read-out: RARbeta Kdapp); 8 µM at RARalpha (apparent Kd from Schild regression, crossed curves against reference antagonist, HeLa cells, read-out: RARalpha Kdapp). Moreover, the AC50 is 2000 nM on RARgamma (setting [3]), 12 nM at RARbeta [1] (setting [3]) and 1800 nM at RARalpha (setting [3]). At RARgamma (setting [4]), this compound registered an RARgamma % activation of 40%. Moreover, the RARbeta % activation at RARbeta [1] (setting [4]) was found to be 100%. Besides, the “ratio of the Kdapp values R” value with RARbeta [2] turned out to be 0.015. The same compound yielded an RARalpha % activation at RARalpha (setting [4]) of 20%.
